From article PMC3944116 (CPT: Pharmacometrics & Systems Pharmacology, 2014)

Experiments:
CYP3A5 = assay: Pharmacogenetic covariate analysis: CYP3A5*3 on CL/F; assay type: in vivo, human; conditions: final model; fractional change of CL/F in CYP3A5*1 carriers
CYP3A4/CYP3A5 = conditions: for Mean value (%), difference in CL/F, cluster C1 vs C4: C1: CYP3A5*1 noncarriers and CYP3A4*22 carriers; for Mean value (%), difference in CL/F, cluster C2 vs C4: C2: CYP3A5*1 noncarriers and CYP3A4*22 noncarriers
Population PK modeling = conditions: for Q/F, intercompartmental clearance: F fixed 0.5/1/0.23
[1] = cited from earlier work
CYP3A4 = assay: Pharmacogenetic covariate analysis: CYP3A4*22 on CL/F; assay type: in vivo, human; conditions: stated as % lower in text; univariate on base model
[2] = base model without covariates, population estimate
[3] = final model with covariates, population estimate
[4] = final model, median of 1,000 bootstrap runs

| Compound | CYP3A5*3 on CL/F, covariate effect (CYP3A5) | Mean value (%), difference in CL/F, cluster C1 vs C4 (CYP3A4/CYP3A5; univariate on base model) [%] | difference in clearance introduced for noncarriers of the CYP3A5*1 allele by CYP3A4*22 carriership (CYP3A4/CYP3A5; C1 vs C2) [%] | Mean value (%), difference in CL/F, cluster C2 vs C4 (CYP3A4/CYP3A5; univariate on base model) [%] | Mean value (%), difference in CL/F, cluster C3 vs C4 (CYP3A4/CYP3A5; C3: CYP3A5*1 carriers and CYP3A4*22 carriers, univariate on base model) [%] | Lagtime of absorption (Population PK modeling; [2]) [h] | Q/F, intercompartmental clearance (Population PK modeling; [2]) [L/h] | Ka (Population PK modeling; [3]) [h⁻¹] | Lagtime (Population PK modeling; [3]) [h] | Q/F (Population PK modeling; [3]) [L/h] | Vc/F (Population PK modeling; [3]) [L] | DDPR ≤25 mg (IOV F) (Population PK modeling; [4]) | HTC on CL/F + IOV F, covariate effect (Population PK modeling; final model, hematocrit) | plasma fraction bound to plasma proteins [1] [%] | lower clearance of CYP3A4*22 carriers compared with noncarriers (CYP3A4) [%] | Vp/F, apparent peripheral distribution volume (Population PK modeling; base model without covariates, population estimate, fixed to 500 for tacrolimus) [L] | Vp/F (Population PK modeling; final model with covariates, fixed to 500 for tacrolimus) [L] | CL/F (Population PK modeling; [4]) [L/h] | IBW on Vc/F, covariate effect (Population PK modeling; final model, ideal BW centered on population median, exponential function) |
| --- | --- | --- | --- | --- | --- | --- | --- | --- | --- | --- | --- | --- | --- | --- | --- | --- | --- | --- | --- |
| C=CC[C@@H]1/C=C(\C)C[C@H](C)C[C@H](OC)[C@H]2O[C@@](O)(C(=O)C(=O)N3CCCC[C@H]3C(=O)O[C@H](/C(C)=C/[C@@H]3CC[C@@H](O)[C@H](OC)C3)[C@H](C)[C@@H](O)CC1=O)[C@H](C)C[C@@H]2OC [Tacrolimus] | 0.52 | −47 | 14 | −33 | −3 | 0.81 | 17.2 | 0.55 | 0.81 | 21 | 25.5 | 0.32 | −0.587 |  |  |  |  |  |  |
| CO[C@H]1C[C@@H]2CC[C@@H](C)[C@@](O)(O2)C(=O)C(=O)N2CCCC[C@H]2C(=O)O[C@H]([C@H](C)C[C@@H]2CC[C@@H](OCCO)[C@H](OC)C2)CC(=O)[C@H](C)/C=C(\C)[C@@H](O)[C@@H](OC)C(=O)[C@H](C)C[C@H](C)/C=C/C=C/C=C/1C [Everolimus] |  | −15 |  | −10 |  | 0.71 | 42.7 | 7 | 0.71 | 43.1 | 140 |  |  | 75 | 7 | 348 | 343 | 16.7 | −0.96 |
